Source: patent publication US20230263817A1, “HIGH DOSE NICOTINAMIDE ADENINE DINUCLEOTIDE (NAD) PRECURSOR REGIMENS FOR REDUCTION OF INFLAMMATION IN HUMAN PATIENTS WITH PREEXISTING INFLAMMATION” (University of Washington, priority 2021, published 2023)

How the values were obtained:
[1] = test system: secreted IL6 protein of healthy PBMC; test: IL6 ELISA of supernatant of cultured healthy PBMCs; format: cell-based, human; settings: 4-hour 1 mM NR in the presence of MitoDAMP
Method: IL6 ELISA. Isolated PBMCs (4×10^6 cells per sample) from healthy or HF participants were resuspended in RPMI medium containing 10% heat-inactivated FBS and treated with various proinflammatory triggers (Vehicle, MitoDAMP, LPS) and compounds (NR, MCC 950, MitoTempo, or LMT-28) to final PBMC concentrations of 10×10^6 cells per mL. See below for detailed descriptions of the reagents. The samples were incubated in Eppendorf tubes at 37° C. in a 5% CO2 incubator with caps open for times designated in the brief description of drawings. The cultured PBMC samples were centrifuged at 8,000 RPM at room temperature. The supernatant was used for ELISA per the manufacture protocol using R&D Systems human IL6 kit (Cat #DY206-05). The cell pellets were stored in −80° C.

[2] = test system: PBMC of Stage D HF subjects; test: PBMC basal and maximal OCR of Stage D HF patients pre- and post-oral NR; format: in vivo, human; settings: oral NR 5-9 days, post vs pre
Method: For experiments associated with the oral NR administration (FIGS. 12C-12F), 5 hospitalized Stage D HF patients undergoing advanced heart failure therapy evaluations were put on escalating doses of NR (250 mg twice a day for Day 1, 500 mg twice a day for Day 2, and 1000 mg twice a day from Day 3 on) for 5-9 days. Fasting blood samples were obtained for PBMC isolation at baseline and post-NR administration. Subject 5 was withdrawn due to a change in clinical course deemed to be independent from NR administration. PBMC and Monocyte isolation. 30-60 ml of fasting blood was collected into EDTA-containing Vacutainers (BD Mfr #364606). Blood then was diluted (1:1) with RPMI medium (Corning; Cat #17-105-CV) and applied to Histopaque gradient medium (Sigma-Aldrich; Cat #10771) using SepMate-50 (STEMCELL Technologies), and centrifuged at 1200 g for 10 minutes. Top layer contained the enriched peripheral blood mononuclear cells (PBMCs) which were collected and followed by centrifugation at 300 g for 10 minutes. The pellet was resuspended with ACK lysis buffer (Gibco; Cat. A1049201) and incubated at room temperature for 5 minutes to remove residual red blood cells. […] When available, the remaining cells were used for cytokine mRNA quantitative PCR and in vitro assays. […] Oxygen consumption rate (OCR) of freshly isolated PBMCs was assessed using a Seahorse XFe24 analyzer (Agilent Technologies). […]

[3] = test system: peripheral blood mononuclear cells (PBMCs); test: Randomized trial of NR in HFrEF: PBMC mitochondrial respiration; format: in vivo, human; settings: Week 12 vs Week 0, NR group
Method: Peripheral Blood Mononuclear Cell (PBMC) Mitochondrial Function. PBMCs were isolated from freshly-collected whole blood by centrifugation in Sepmate™-50 PBMC isolation tubes (STEMCELL Technologies, Vancouver, BC, Canada; Cat. 85450). Isolated PBMCs were resuspended in Seahorse XF® medium (Agilent, Cat. 102353-100) and then plated (10^6 cells/well) onto Seahorse® (Agilent) 24-well plates. PBMC mitochondrial respiratory function was assessed by measuring the oxygen consumption rate (OCR) at baseline and maximal stimulated conditions as described in Zhou B, et al. (J Clin Invest. 2020, 130:6054-6063 (Experimental Example 1)). Exploratory Endpoints. The following endpoints were considered exploratory, as the Study was underpowered to detect differences.

[4] = Whole blood NAD+ in Stage D HF patients on oral NR for 5-9 days; format: in vivo, human; settings: oral NR up to 1000 mg twice a day, post vs pre
Method: (§1) For experiments associated with the oral NR administration (FIGS. 12C-12F), 5 hospitalized Stage D HF patients undergoing advanced heart failure therapy evaluations were put on escalating doses of NR (250 mg twice a day for Day 1, 500 mg twice a day for Day 2, and 1000 mg twice a day from Day 3 on) for 5-9 days. Fasting blood samples were obtained for PBMC isolation at baseline and post-NR administration. Subject 5 was withdrawn due to a change in clinical course deemed to be independent from NR administration.
Whole bloodNAD^+ assays. These were performed as previously described (Airhart S E, et al., PLoS One. 2017, 12(12):e0186459). Briefly, 50 μL of thawed blood samples were added to tubes containing 1 μg BMP as the internal standard and immediately followed by 300 μL of 4% trichloroacetic acid to precipitate proteins. Calibration standards were similarly prepared except that the matrix was 30 mg/mL BSA spiked with NAD^+ and NMN that had been dissolved in methanol. After protein precipitation and high-speed centrifugation, the supernatants were loaded onto Costar Spin-X 0.22 μm spin filters and subject to high speed centrifugation again. The eluates were injected onto an Agilent 1100 series high performance liquid chromatograph coupled to an Agilent G1956B single-quadrupole mass spectrometer. The mass spectrometer was operated in electrospray ionization mode with positive polarity.

[5] = test system: NLRP3 and cytokines mRNA of PBMC of Stage D HF subjects; test: PBMC NLRP3 and cytokine mRNA of Stage D HF patients pre- and post-oral NR; format: in vivo, human; settings: oral NR 5-9 days, post vs pre
Method: as §1
RNA Isolation and Quantitative PCR analysis. Total RNA was isolated from frozen PBMC pellets using Trizol (Invitrogen) per the manufacturer's instructions, and cDNA was synthesized using iScript™ Reverse Transcription Supermix (Bio-rad) per the manufacturer's instructions. Real-time PCR was performed in the Corbett rotor gene 6000 real-time PCR machine using iQ™ SYBR® Green Supermix (Bio-rad) and expression levels of the indicated genes were calculated using the ΔΔCt method.

NC(=O)c1ccc[n+]([C@@H]2O[C@H](CO)[C@@H](O)[C@H]2O)c1 [NR, nicotinamide riboside]
IL6 secretion [1]: reduction | PBMCs basal OCR [2]: consistent enhancement | PBMCs maximal OCR [2]: consistent enhancement | baseline (basal) PBMC mitochondrial respiration rates [3]: not changed | maximal PBMC respiration ([3]; did not reach statistical significance): marginal increase | whole blood NAD+ levels [4]: increases | reduction of proinflammatory cytokine gene expressions [5]: up to 30 fold
